Source: patent publication US10945978B2, “Treatment and diagnosis of melanoma” (The Rockefeller University, priority 2012, dated 2021)
Structures can show the parent of a compound that is named as a salt.

Assays:
ApoE = ApoE expression in mice fed LXR agonist diet (western blot, qRT-PCR); format: in vivo, mouse; settings: 10 days; for ApoE protein expression in systemic adipose, lung, and brain tissues: chow 20 mg/kg, western blot; for ApoE transcript levels in circulating white blood cells: diet 20 mg/kg, qRT-PCR
Experimental: Mouse lung and brain tissue samples were homogenized on ice in RIPA buffer (Sigma-Aldrich) supplemented with protease inhibitors (Roche). Mouse adipose tissue was homogenized on ice in TNET buffer (1.5 mM Tris pH 7.5, 150 mM NaCl, 2 mM EDTA 1% triton, protease inhibitors). Total protein lysate (2 jag) was separated by SDS-PAGE, transferred to PVDF membrane, and blotted with an anti-mouse ApoE (ab20874, Abcam) and anti-tubulin α/β (2148, Cell Signaling) antibodies. RNA was extracted from whole cell lysates using the Total RNA Purification Kit (17200, Norgen, Thorold, Canada). 600 ng of total RNA was then reverse transcribed into cDNA using the cDNA First-Strand Synthesis Kit (18080-051, Invitrogen), and quantitative real-time PCR amplification was performed as previously described (Pencheva et al., 2012) using an ABI Prism 7900HT Real-Time PCR System (Applied Biosystems, Austin, Tex.). Each PCR reaction was carried out in quadruplicates. Gene expression was normalized to GAPDH, which was used as an endogenous control.

Extracellular ApoE = experiment: ApoE ELISA in conditioned media; format: cell-based, human; settings: MeWo cells; 1 μM, 72 hours
Experimental: Extracellular ApoE levels in serum-free conditioned media from melanoma cells treated with DMSO, GW3965, or T0901317 (1 μM each) were quantified using the ApoE ELISA kit (Innovative Research) at 72 hours following treatment.

[1] = system: MeWo human melanoma cells; experiment: Lung metastatic colonization by MeWo cells injected i.v. into NOD Scid mice; format: in vivo; settings: for reduction in lung metastatic colonization: chow 20 mg/kg starting 10 days prior to cell injection
Experimental: Melanoma cells used for in vivo metastasis assays were transduced with a stably expressed retroviral construct encoding a luciferase reporter gene (Ponomarev et al., 2004), allowing us to monitor the in vivo progression of melanoma cells by bioluminescence imaging. The following numbers of melanoma cells, resuspended in 100 μL of PBS, were injected intravenously via the tail-vein: 4×10^4 MeWo cells, 2.5×10^5 HT-144 cells, 2×10^5 SK-Mel-334.2 cells, 5×10^4B16F10 cells, and 1×10^5 YUMM cells. The MeWo, HT-144, and SK-Mel-334.2 cells were injected into 6-8 week-old sex-matched NOD scid mice, while the B16F10 and YUMM cells were injected into 6-8 week-old sex-matched C57BL/6 mice. In all experiments assessing at the effects of GW3965 on metastasis formation, mice were pre-treated on a control diet or a GW3965-supplemented diet (20 mg/kg) for 10 days. To assess the effect of GW3965 treatment on brain metastasis, 1×10^5 MeWo brain-metastatic derivatives were injected intracardially into athymic nude mice. Immediately following injection, mice were randomly assigned to a control diet or GW3965-supplemented diet (100 mg/kg). To determine whether oral delivery of GW3965 can inhibit the progression of incipient metastasis, NOD Scid mice were intravenously injected with 4×10^4 MeWo cells and the cells were allowed to colonize the lungs for 42 days, after which mice were blindedly assigned to a control diet or a GW3965-supplemented diet (100 mg/kg) treatment.

[2] = system: melanoma cells (MeWo, MeWo-LM2, HT-144, SK-Mel-334.2) and endothelial cells; experiment: In vitro cell proliferation, viability and serum starvation assays; format: cell-based, human; parameters: melanoma cell or endothelial cell in vitro proliferation: dose or concentration left out as unconfirmed; settings: for cell proliferation or cell viability rates: MeWo, HT-144, SK-Mel-334.2, 1 μM, 5 days
Experimental: To determine the effects of miR-199a or miR-1908 over-expression and combinatorial LNA-induced miRNA inhibition on cell proliferation, 2.5×10^4 cells were seeded in triplicate in 6-well plates, and viable cells were counted after 5 days. […] Viable cells were counted after 8, 24, 48, 72, and 120 hours.
The number of viable cells was counter after 8, 16, and 24 hours.
To determine the effects of GW3965, T0901317, and Bexarotene on in vitro cell growth, 2.5×10^4 melanoma cells were seeded in triplicate in 6-well plates and cultured in the presence of DMSO, GW3965, T0901317, or Bexarotene at 1 μM each. After 5 days, the number of viable and dead cells was counted using the trypan blue dye (72-57-1, Sigma-Aldrich), which selectively labels dead cells.

[3] = system: B16F10 mouse melanoma cells; experiment: Subcutaneous B16F10 tumor growth in C57BL/6 mice; settings: for suppression of tumor growth: 20 mg/kg
Experimental: Animals were palpated weekly for tumor formation, after which sizeable tumors were measured twice a week. Tumor volume was calculated as (small diameter)^2×(large diameter)/2.

[4] = system: ApoE promoter fused to ME.1 or ME.2; experiment: ApoE promoter activity assay (luciferase); format: cell-based, human; settings: MeWo cells; 1 μM, 24 hours
Description: The ApoE promoter, consisting of a sequence spanning 980 base pairs upstream and 93 base pairs downstream of the ApoE gene, was cloned into a pGL3-Basic vector (E1751, Promega Corporation, Madison, Wis.) upstream of the firefly luciferase gene using NheI and SacI restriction enzymes. Then, multi-enhancer elements 1 (ME. 1) and 2 (ME.2) were cloned directly upstream of the ApoE promoter using MluI and SacI restriction enzymes. To assess ApoE promoter- and ME.1/ME.2-driven transcriptional activation by LXR agonists, 5×10^4 MeWo cells were seeded into a 24-well plate. The following day, 100 ng of pGL3-ME. […] To assess transcriptional activation by LXRα or LXR(3, 5×10^4 MeWo cells expressing a control shRNA or shRNA targeting LXRα or LXRβ were seeded into a 24-well plate. The following day, 200 ng of pGL3-ME. 1/ME.2-ApoE promoter construct and 2 ng of pRL-CMV renilla luciferase were co-transfected into cells in the presence of DMSO, GW3965, or T0901317 at 1 μM, each condition in quadruplicate. After 24 hours, cells were lysed, and cell lysate was analyzed for firefly and renilla luciferase activity using the Dual Luciferase Assay System (E1960, Promega) and a Bio-Tek Synergy NEO Microplate Reader. Firefly luciferase signal was normalized to renilla luciferase signal and all data are expressed relative to the luciferase activity ratio measured in the DMSO-treated control cells.

Compound | ApoE protein expression in systemic adipose, lung, and brain tissues (ApoE) | ApoE transcript levels in circulating white blood cells (ApoE) | levels of secreted ApoE protein (Extracellular ApoE) | survival times following metastatic colonization ([1]; GW3965-supplemented chow) | suppression of colonization by incipient lung metastases ([1]; GW3965 diet 100 mg/kg from d42) | number of macroscopic metastatic nodules ([1]; GW3965 diet 100 mg/kg from d42, lungs at d77) | reduction in metastatic colonization capacity ([1]; cells pre-treated with GW3965 1 μM for 48 hours) | in vivo melanoma metastasis (lung, bioluminescence) ([1]; chow containing GW3965 20 mg/kg, oral) | reduction in lung metastatic colonization ([1]; oral) | cell proliferation or cell viability rates [2] | suppression of tumor growth in mice genetically inactivated for ApoE ([3]; ApoE−/− mice, GW3965 diet 20 mg/kg, 7 days) | suppression of tumor growth ([3]; oral, from tumors of 5-10 mm3) | reduction in tumor growth ([3]; oral, 100 mg/kg, from tumors of 5-10 mm3) | reduction in the growth of established large tumors ([3]; tumors ~150 mm3, chow containing GW3965 150 mg/kg) | activity of luciferase reporter with ApoE promoter fused to ME.1 or ME.2 [4] | melanoma cell or endothelial cell in vitro proliferation ([2]; MeWo-LM2 cells or endothelial cells, ApoE) | survival in serum starvation conditions ([2]; MeWo-LM2 cells or endothelial cells, ApoE, 0.2% FBS)
O=C(O)Cc1cccc(OCCCN(Cc2cccc(C(F)(F)F)c2Cl)CC(c2ccccc2)c2ccccc2)c1 [GW3965 2, 3-[3-[N-(2-Chloro-3-trifluoromethylbenzyl)-(2,2-diphenylethyl)amino]propyloxy] phenylacetic acid hydrochloride] | significantly elevated | upregulated | elevated levels | significantly prolonged | 28 fold | decreased | more than 50 fold | significant reduction | 31 fold | did not affect | completely ineffective | 67% | 80% | roughly 50% | enhance | – | –
O=S(=O)(c1ccccc1)N(CC(F)(F)F)c1ccc(C(O)(C(F)(F)F)C(F)(F)F)cc1 [T0901317 1] | significantly elevated | upregulated | elevated levels | – | – | – | – | – | 23 fold | did not affect | – | 61% | – | – | enhance | – | –
recombinant human ApoE: recombinant human ApoE3 (4696, BioVision) | – | – | – | – | – | – | – | – | – | – | – | – | – | – | – | did not affect | did not affect
